# Test results published in patent US4576948A, “Composition and method for inhibiting terminal deoxyribonucleotidyl transferase activity” (Trustees Boston University, priority 1983, dated 1986).
# Legend:
# [1] = biological target: T1, terminal deoxyribonucleotidyl transferase (TdT) (Bos taurus, UniProt P06526); test: TdT assay (3H-dGMP incorporation) with purified TdT; format: biochemical, calf; conditions: for CMP 3H--dGMP inc.: 200 μM compound, 35° C., 1 hour, 10 μM 3H-dGTP, DMSO only control 12,131; for CMP Incorporated, TdT: additive at 400 M (so in the source), DMSO control 12,131; for TdT inhibition (in words): concentration not given
# T1 construct: classical preparation may be proteolysed two-subunit form of one gene product
# Protocol: (§1) TdT was purified from normal calf thymus gland by a procedure utilizing the successive steps of homogenization, ion exchange […] and gel filtration. Bollum et al, "The Enzymes", (R. D. Boxer Ed.) pp. 145-171, Academic Press, New York. TdT was assayed at 35° C. for 1 hour in 0.1 ml total volume of a reaction mixture comprising 0.05 M Tris-HCl (pH 8.3), 2 mM […], 0.6 mM MnCl2, 10 μg bovine serum albumin (BSA), 1 μg oligodA14-18, 10 μM ^3 H-dGTP (d-triphosphate) and chelex distilled H2 O. When used, the 6-anilinouracil derivates were added at various concentrations in 5 μl DMSO per 100 μl reaction mix. Other DNA polymerases (α, β, and γ) were assayed using standard assay conditions, as previously described by Wright, Baril and Brown, Nucleic Acids Research, Vol. 8, No. 1, pp. 99-109, 1980.
# Reaction conditions used were as noted above.
# [2] = biological target: T2, HeLa cell polymerase α (Homo sapiens, UniProt P09884); conditions: background statement; no other mammalian cell DNA polymerase inhibited; cited from earlier work
# [3] = tested on: HeLa cells; conditions: background statement, 'in vivo'; cited from earlier work
# [4] = biological target: HeLa cell polymerase β (Homo sapiens, UniProt P06746); test: DNA polymerase β assay, standard assay conditions; format: biochemical; conditions: for effect on HeLa cell polymerase β (in words): 400 μM; for CMP Incorporated, Pol β: additive at 400 M (so in the source), DMSO control 5,221
# Protocol: as §1
# [5] = biological target: T2, HeLa cell polymerase α; test: DNA polymerase α assay, standard assay conditions; format: biochemical; conditions: for effect on HeLa cell polymerase α (in words): 400 μM; for CMP Incorporated, Pol α: additive at 400 M (so in the source), DMSO control 15,040
# Protocol: as §1
# [6] = biological target: T3, HeLa cell polymerase γ (Homo sapiens, UniProt P54098); test: DNA polymerase γ assay, standard assay conditions; format: biochemical; conditions: for effect on HeLa cell polymerase γ (in words): 400 μM; for CMP Incorporated, Pol γ: additive at 400 M (so in the source), DMSO control 7,490
# T3 sequence (P54098 1-1239): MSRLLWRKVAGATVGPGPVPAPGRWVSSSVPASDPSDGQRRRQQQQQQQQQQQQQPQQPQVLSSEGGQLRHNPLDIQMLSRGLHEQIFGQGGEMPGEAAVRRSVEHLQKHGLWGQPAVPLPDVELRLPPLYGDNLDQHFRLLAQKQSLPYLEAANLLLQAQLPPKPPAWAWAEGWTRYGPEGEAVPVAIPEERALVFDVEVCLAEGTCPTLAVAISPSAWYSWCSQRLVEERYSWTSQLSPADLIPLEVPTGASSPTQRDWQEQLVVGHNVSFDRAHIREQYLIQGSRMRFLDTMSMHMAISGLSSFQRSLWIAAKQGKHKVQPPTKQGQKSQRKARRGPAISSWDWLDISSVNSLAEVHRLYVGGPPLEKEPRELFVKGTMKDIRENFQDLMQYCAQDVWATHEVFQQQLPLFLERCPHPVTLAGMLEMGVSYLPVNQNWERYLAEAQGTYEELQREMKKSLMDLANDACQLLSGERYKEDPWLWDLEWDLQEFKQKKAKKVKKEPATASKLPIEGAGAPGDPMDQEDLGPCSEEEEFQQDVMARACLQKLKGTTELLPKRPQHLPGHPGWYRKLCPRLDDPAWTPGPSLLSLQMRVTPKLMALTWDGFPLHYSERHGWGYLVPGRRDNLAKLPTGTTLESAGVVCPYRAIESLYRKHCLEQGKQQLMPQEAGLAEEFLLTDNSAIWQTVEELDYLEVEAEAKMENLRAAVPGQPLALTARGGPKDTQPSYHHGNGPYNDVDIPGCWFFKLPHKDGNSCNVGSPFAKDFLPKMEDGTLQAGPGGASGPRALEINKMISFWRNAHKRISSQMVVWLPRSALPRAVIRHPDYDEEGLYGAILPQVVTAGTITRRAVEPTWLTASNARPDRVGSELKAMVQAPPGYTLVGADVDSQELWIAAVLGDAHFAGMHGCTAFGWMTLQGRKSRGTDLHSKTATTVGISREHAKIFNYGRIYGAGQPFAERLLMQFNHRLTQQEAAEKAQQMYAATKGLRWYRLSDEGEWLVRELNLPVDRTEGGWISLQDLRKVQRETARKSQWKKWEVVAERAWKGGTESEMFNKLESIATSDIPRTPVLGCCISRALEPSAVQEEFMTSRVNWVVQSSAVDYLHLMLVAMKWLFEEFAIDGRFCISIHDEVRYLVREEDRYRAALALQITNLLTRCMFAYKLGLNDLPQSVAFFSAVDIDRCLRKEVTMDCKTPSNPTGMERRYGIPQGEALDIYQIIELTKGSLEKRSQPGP
# T3 sequence (Q9UHN1 2-485 partner): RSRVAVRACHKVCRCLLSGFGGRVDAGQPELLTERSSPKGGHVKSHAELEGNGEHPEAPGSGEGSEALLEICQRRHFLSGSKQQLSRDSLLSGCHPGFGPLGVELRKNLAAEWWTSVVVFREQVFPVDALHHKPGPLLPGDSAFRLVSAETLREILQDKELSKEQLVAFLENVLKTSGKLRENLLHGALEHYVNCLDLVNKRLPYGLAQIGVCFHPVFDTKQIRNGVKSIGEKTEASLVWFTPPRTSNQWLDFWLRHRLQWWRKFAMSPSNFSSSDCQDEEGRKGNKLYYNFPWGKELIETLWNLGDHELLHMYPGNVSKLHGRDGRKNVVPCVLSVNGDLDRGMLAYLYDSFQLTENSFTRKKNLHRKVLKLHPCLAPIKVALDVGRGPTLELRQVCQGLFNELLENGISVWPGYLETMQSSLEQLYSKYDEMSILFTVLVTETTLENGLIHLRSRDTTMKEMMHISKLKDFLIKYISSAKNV
# Protocol: as §1
# [7] = tested on: L1210 cells; test: Inhibition of cell proliferation, L1210 (TdT-negative); format: cell-based, Mouse; conditions: even at 400 μM; 1% DMSO; viable cells at 72 hours
# Protocol: (§2) HeLa cells, El-4cells, L1210 cells were grown in suspended cell culture under standard conditions in RPMI medium, at 37° C. in moist air containing 5% CO2. All inhibitions were performed using a final concentration of 1% DMSO as inhibitor solvent. Control cells were therefore grown in the presence of 1% DMSO.
# (§3) Compound GW18C (6-(p-aminoanilo) uracil) was prepared as a 40 mM stock solution in pre-heated DMSO. This stock solution was progressively diluted to give a range of operating inhibitory concentrations between 1×10^-9 M and […]. Inhibition was measured by comparing the number of viable cells in control cultures at the end of 72 hours with the number in cultures exposed to inhibitor.
# [8] = tested on: EL-4; test: Inhibition of cell proliferation, EL-4 (TdT-positive); format: cell-based, Mouse
# Protocol: as §2, §3
# [9] = tested on: HeLa cells; test: Inhibition of cell proliferation, HeLa (TdT-negative); format: cell-based, Human; conditions: even at 400 μM; 1% DMSO; viable cells at 72 hours
# Protocol: as §2, §3
# T2 sequence (P09884 whole entry): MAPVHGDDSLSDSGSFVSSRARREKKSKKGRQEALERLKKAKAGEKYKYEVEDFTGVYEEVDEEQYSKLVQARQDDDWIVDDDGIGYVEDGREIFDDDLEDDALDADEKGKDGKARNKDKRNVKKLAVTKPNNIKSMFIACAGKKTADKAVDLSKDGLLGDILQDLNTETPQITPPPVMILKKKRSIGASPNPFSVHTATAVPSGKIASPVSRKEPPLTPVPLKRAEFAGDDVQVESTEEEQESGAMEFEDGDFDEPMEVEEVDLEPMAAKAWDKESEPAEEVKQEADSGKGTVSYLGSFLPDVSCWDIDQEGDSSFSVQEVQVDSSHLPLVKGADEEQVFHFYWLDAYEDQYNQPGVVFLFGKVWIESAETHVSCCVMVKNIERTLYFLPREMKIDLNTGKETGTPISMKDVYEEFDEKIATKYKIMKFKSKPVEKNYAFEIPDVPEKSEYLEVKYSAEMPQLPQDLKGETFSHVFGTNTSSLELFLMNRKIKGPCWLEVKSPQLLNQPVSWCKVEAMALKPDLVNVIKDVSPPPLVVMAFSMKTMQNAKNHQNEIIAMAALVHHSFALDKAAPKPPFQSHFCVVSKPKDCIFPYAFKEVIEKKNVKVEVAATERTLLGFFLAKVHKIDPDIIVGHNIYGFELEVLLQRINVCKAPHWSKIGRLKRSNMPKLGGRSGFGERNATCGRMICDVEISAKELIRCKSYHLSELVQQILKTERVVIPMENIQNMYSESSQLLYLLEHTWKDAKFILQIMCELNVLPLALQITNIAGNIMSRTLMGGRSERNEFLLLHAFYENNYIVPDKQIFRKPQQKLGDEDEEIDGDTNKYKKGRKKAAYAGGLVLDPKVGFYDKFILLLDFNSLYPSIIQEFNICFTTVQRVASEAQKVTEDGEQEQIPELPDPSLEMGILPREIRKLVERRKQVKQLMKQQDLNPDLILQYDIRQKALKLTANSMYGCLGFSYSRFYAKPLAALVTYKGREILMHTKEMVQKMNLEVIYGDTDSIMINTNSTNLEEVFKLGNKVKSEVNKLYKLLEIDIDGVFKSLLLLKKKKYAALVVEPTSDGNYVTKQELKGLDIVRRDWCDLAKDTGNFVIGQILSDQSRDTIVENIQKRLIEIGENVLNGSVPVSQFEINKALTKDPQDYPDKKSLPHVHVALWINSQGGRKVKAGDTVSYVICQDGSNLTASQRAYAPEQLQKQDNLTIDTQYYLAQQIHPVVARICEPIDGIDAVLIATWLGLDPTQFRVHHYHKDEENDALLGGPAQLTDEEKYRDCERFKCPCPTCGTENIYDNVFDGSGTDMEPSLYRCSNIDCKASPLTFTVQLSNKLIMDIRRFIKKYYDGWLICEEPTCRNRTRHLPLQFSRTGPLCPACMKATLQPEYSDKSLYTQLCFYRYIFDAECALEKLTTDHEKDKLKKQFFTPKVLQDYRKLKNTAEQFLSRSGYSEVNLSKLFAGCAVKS
# T2 sequence (Q14181 whole entry partner): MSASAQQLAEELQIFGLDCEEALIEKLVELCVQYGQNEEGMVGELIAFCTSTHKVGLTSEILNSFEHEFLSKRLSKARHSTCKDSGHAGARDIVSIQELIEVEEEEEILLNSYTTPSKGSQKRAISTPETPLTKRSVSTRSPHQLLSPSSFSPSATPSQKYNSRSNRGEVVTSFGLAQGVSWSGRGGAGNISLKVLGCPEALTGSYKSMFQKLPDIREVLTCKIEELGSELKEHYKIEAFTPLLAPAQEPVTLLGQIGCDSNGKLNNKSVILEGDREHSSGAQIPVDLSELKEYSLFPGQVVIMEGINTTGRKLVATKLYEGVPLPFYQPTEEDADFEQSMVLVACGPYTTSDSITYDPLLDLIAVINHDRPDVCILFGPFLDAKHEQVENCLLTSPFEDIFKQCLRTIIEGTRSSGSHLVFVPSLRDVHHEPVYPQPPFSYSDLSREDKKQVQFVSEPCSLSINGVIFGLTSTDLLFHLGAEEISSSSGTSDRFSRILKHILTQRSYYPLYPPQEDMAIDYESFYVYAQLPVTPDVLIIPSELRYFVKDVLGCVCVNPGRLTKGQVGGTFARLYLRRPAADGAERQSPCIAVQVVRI
# T2 sequence (P49642 whole entry partner): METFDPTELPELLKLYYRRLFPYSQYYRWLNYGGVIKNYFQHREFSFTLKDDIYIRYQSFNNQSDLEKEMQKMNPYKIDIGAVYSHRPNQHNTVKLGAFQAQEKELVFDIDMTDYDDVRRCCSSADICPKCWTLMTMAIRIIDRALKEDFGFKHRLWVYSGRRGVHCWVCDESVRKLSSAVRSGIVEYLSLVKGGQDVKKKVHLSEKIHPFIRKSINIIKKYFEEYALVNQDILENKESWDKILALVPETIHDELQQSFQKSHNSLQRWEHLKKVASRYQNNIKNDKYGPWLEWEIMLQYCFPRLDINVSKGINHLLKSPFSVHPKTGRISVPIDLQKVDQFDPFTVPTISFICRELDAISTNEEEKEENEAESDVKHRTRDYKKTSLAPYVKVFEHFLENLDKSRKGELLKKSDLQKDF
# T2 sequence (P49643 whole entry partner): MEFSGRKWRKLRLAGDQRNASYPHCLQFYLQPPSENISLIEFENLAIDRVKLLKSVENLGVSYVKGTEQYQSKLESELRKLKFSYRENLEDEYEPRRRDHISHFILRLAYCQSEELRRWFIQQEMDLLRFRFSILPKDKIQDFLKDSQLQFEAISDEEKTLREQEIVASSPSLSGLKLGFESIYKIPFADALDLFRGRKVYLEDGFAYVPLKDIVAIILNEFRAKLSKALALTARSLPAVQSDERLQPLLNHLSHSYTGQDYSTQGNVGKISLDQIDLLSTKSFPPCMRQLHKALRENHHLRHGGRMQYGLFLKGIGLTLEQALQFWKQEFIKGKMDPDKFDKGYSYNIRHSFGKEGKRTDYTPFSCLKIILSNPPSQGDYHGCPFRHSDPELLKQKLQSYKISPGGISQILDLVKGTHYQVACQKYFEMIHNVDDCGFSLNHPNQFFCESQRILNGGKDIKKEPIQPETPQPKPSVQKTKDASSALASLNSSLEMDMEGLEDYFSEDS
# T1 sequence (P06526 whole entry): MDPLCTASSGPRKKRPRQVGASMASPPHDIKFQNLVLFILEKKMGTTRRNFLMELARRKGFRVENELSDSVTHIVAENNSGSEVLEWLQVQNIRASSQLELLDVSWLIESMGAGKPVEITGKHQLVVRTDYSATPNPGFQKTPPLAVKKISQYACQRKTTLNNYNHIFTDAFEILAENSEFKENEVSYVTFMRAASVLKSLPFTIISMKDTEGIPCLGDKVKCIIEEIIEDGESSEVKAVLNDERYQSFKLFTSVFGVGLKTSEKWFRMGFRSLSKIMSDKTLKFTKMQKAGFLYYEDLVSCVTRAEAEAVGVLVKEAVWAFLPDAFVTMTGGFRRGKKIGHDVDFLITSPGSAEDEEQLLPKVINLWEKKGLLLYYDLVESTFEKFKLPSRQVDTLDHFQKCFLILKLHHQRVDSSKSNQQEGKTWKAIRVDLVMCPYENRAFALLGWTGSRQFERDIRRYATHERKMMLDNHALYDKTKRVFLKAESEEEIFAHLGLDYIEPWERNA
compound,measurement,setting,value
6-(p-methoxybenzyl)-6-aminouracil [GW-33E],CMP 3H--dGMP inc.,[1],"11,988 CMP"
CCCCc1ccc(Nc2cc(=O)[nH]c(=O)[nH]2)cc1 [6-(p-n-butylanilino) uracil],inhibition of DNA polymerase alpha of HeLa cells (in words),[2],specific inhibitor
same,inhibition of HeLa cell division and DNA synthesis (in words),[3],selective inhibitor
"O=c1cc(NCc2ccccc2)[nH]c(=O)[nH]1 [GW-7B, 6-(benzylamino)uracil]",CMP 3H--dGMP inc.,[1],"12,780 CMP"
"O=c1cc(NCCc2ccccc2)[nH]c(=O)[nH]1 [GW-7C, 6-(phenethylamino)uracil]",CMP 3H--dGMP inc.,[1],"12,391 CMP"
"O=c1cc(Nc2ccccc2)[nH]c(=O)[nH]1 [GW-9E, 6-anilinouracil]",CMP 3H--dGMP inc.,[1],"10,350 CMP"
"CCCCc1ccc(Nc2cc(=O)[nH]c(=O)[nH]2)cc1 [GW-11D, 6-(p-butylanilino)uracil]",CMP 3H--dGMP inc.,[1],"10,925 CMP"
"CC(=O)Nc1ccc(CNc2cc(=O)[nH]c(=O)[nH]2)cc1 [GW-16C, 6-(p-acetamidobenzylamino)uracil]",CMP 3H--dGMP inc.,[1],"14,160 CMP"
"O=c1cc(Nc2ccc3c(c2)CCC3)[nH]c(=O)[nH]1 [GW-17B, 6-(3',4'-trimethyleneanilino)uracil]",CMP 3H--dGMP inc.,[1],"12,383 CMP"
"COc1ccc(Nc2cc(=O)[nH]c(=O)[nH]2)cc1 [GW-17E, 6-(p-methoxyanilo)uracil]",CMP 3H--dGMP inc.,[1],"6,980 CMP"
same,"CMP Incorporated, TdT",[1],"4,964 CMP"
same,effect on HeLa cell polymerase β (in words),[4],not effected
same,"CMP Incorporated, Pol β",[4],"5,492 cpm"
same,effect on HeLa cell polymerase α (in words),[5],not effected
same,"CMP Incorporated, Pol α",[5],"15,217 CMP"
same,effect on HeLa cell polymerase γ (in words),[6],not effected
same,"CMP Incorporated, Pol γ",[6],"7,223 CMP"
"O=c1cc(NC2CCCCC2)[nH]c(=O)[nH]1 [GW-18B, 6-(cyclohexylamino)uracil]",CMP 3H--dGMP inc.,[1],"13,442 CMP"
"Nc1ccc(Nc2cc(=O)[nH]c(=O)[nH]2)cc1 [GW-18C, 6-(p-aminoanilo)uracil]",CMP 3H--dGMP inc.,[1],"5,198 CMP"
same,"CMP Incorporated, TdT",[1],"3,102 CMP"
same,effect on HeLa cell polymerase β (in words),[4],not effected
same,"CMP Incorporated, Pol β",[4],"5,218 cpm"
same,effect on HeLa cell polymerase α (in words),[5],not effected
same,"CMP Incorporated, Pol α",[5],"15,417 CMP"
same,growth of L1210 cells (in words),[7],not inhibited
same,EL-4 proliferation (in words),"[8]; 400 μM, 1% DMSO",inhibited
same,inhibition at 400 µM,"[8]; Mus musculus, EL4, EL-4, at 72 hours, read-out: maximal growth inhibition",80%
same,growth of HeLa cells (in words),[9],not inhibited
same,effect on HeLa cell polymerase γ (in words),[6],not effected
same,"CMP Incorporated, Pol γ",[6],"7,165 CMP"
"CCCCCNc1cc(=O)[nH]c(=O)[nH]1 [GW-18E, 6-(n-pentylamino)uracil]",CMP 3H--dGMP inc.,[1],"11,674 CMP"
"O=c1cc(NCC2CCCCC2)[nH]c(=O)[nH]1 [GW-20B, 6-(cyclohexylmethylamino)uracil]",CMP 3H--dGMP inc.,[1],"11,296 CMP"
"CC(C)CCNc1cc(=O)[nH]c(=O)[nH]1 [GW-22A, 6-(iso-pentylamino)uracil]",CMP 3H--dGMP inc.,[1],"12,005 CMP"
"O=c1cc(Nc2ccc(O)cc2)[nH]c(=O)[nH]1 [GW-22E, 6-(p-hydroxyanilino)uracil]",CMP 3H--dGMP inc.,[1],"21,760 CMP"
O=c1cc(Nc2cccc(O)c2)[nH]c(=O)[nH]1 [GW-23A],TdT inhibition (in words),[1],not inhibitory
"O=c1cc(Nc2cccc3ccccc23)[nH]c(=O)[nH]1 [GW-28A, 6-(d-naphthylamino)uracil]",CMP 3H--dGMP inc.,[1],"12,038 CMP"
Cc1ccc(Nc2cc(=O)[nH]c(=O)[nH]2)cc1CO [GW-28D],TdT inhibition (in words),[1],not inhibitory
